From PubChem BioAssay AID330 (DTP/NCI, 2004)
Several values for one entry are separate records, joined by “and”; a condition that tells them apart may be missing. Equal values may be shown once. Toxic doses and inconclusive results are not listed. Rule for the calls: active = survival T/C of 150% or more; inactive = T/C below 125% in these data.

Tested on: P388 leukemia ip, CD2F1 mice, survival T/C
Experiment: NCI In Vivo Anticancer Drug Screen. Data for tumor model P388 Leukemia (intraperitoneal) in CD2F1 (CDF1) mice
Conditions: endpoint: median survival time, higher = longer survival
How it was run: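 Mice carrying the transplanted tumor received test compound or vehicle. Survival was recorded in each group, and the value is the treated-group measurement divided by that of the vehicle-treated control group.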

[1] = dose: 50.0 mg/kg/injection, schedule: Q01DX009 (ip), vehicle: saline with Tween-80
[2] = dose: 100.0 mg/kg/injection, schedule: Q01DX009 (ip), vehicle: saline with Tween-80
[3] = dose: 200.0 mg/kg/injection, schedule: Q01DX009 (ip), vehicle: saline with Tween-80
[4] = dose: 6.25 mg/kg/injection, schedule: Q01DX009 (ip), vehicle: saline with Tween-80
[5] = dose: 12.5 mg/kg/injection, schedule: Q01DX009 (ip), vehicle: saline with Tween-80
[6] = dose: 25.0 mg/kg/injection, schedule: Q01DX005 (ip), vehicle: saline with Tween-80
[7] = dose: 100.0 mg/kg/injection, schedule: Q01DX005 (ip), vehicle: saline with Tween-80
[8] = dose: 200.0 mg/kg/injection, schedule: Q01DX005 (ip), vehicle: saline with Tween-80
[9] = dose: 60.0 mg/kg/injection, schedule: Q01DX005 (ip), vehicle: saline with Tween-80
[10] = dose: 120.0 mg/kg/injection, schedule: Q01DX005 (ip), vehicle: saline with Tween-80
[11] = dose: 240.0 mg/kg/injection, schedule: Q01DX005 (ip), vehicle: saline with Tween-80
[12] = dose: 100.0 mg/kg/injection, schedule: Q04DX002 (ip), vehicle: saline with Tween-80
[13] = dose: 200.0 mg/kg/injection, schedule: Q04DX002 (ip), vehicle: saline with Tween-80
[14] = dose: 400.0 mg/kg/injection, schedule: Q04DX002 (ip), vehicle: saline with Tween-80
[15] = dose: 50.0 mg/kg/injection, schedule: Q01DX005 (ip), vehicle: saline with Tween-80
[16] = dose: 50.0 mg/kg/injection, schedule: Q01DX009 (ip), vehicle: Klucel (hydroxypropylcellulose) (HPC)

Measured: T/C

OCCN1OCCCC1c1ccccc1 (stereo not drawn)
inactive: [1] 94 % of control | [2] 92 % of control

Oc1[nH]c(N=C2N=c3ccccc3=N2)c2ccccc12
inactive: [1] 118 % of control | [2] 103 % of control | [3] 104 % of control

O=c1[nH][nH]c2c(N=Cc3ccccc3O)ccc(F)c12
inactive: dose: 50.0 mg/kg/injection, schedule: Q01DX005 (ip), vehicle: Klucel + Tween-80 108 % of control | dose: 100.0 mg/kg/injection, schedule: Q01DX005 (ip), vehicle: Klucel + Tween-80 102 % of control | dose: 200.0 mg/kg/injection, schedule: Q01DX005 (ip), vehicle: Klucel + Tween-80 108 % of control

Nc1ccc(N=O)c(N)n1
inactive: dose: 0.78 mg/kg/injection, schedule: Q01DX009 (ip), vehicle: saline 98 % of control | dose: 1.56 mg/kg/injection, schedule: Q01DX009 (ip), vehicle: saline 86 % of control | [4] 107 % of control | [5] 98 % of control | dose: 12.5 mg/kg/injection, schedule: Q01DX009 (ip), vehicle: saline 98 % of control | dose: 25.0 mg/kg/injection, schedule: Q01DX009 (ip), vehicle: saline with Tween-80 100 % of control | dose: 50.0 mg/kg/injection, schedule: Q01DX009 (ip), vehicle: saline 106 % of control

O=NNc1ncc(Br)cc1Br
active: dose: 50.0 mg/kg/injection, schedule: Q01DX005 (ip), vehicle: water 154 % of control and 165 % of control | dose: 100.0 mg/kg/injection, schedule: Q01DX005 (ip), vehicle: water 175 % of control and 190 % of control and 206 % of control
inactive: dose: 1.56 mg/kg/injection, schedule: Q01DX009 (ip), vehicle: water 100 % of control | dose: 3.12 mg/kg/injection, schedule: Q01DX009 (ip), vehicle: water 99 % of control and 107 % of control | dose: 6.25 mg/kg/injection, schedule: Q01DX009 (ip), vehicle: water 107 % of control and 110 % of control | dose: 12.5 mg/kg/injection, schedule: Q01DX005 (ip), vehicle: water 119 % of control and 122 % of control | dose: 12.5 mg/kg/injection, schedule: Q01DX009 (ip), vehicle: water 122 % of control | dose: 25.0 mg/kg/injection, schedule: Q01DX009 (ip), vehicle: water 122 % of control

CNC(=O)Nc1ccn(C(=O)NC)c(=O)n1
inactive: dose: 100.0 mg/kg/injection, schedule: Q04DX002 (ip), vehicle: Klucel (hydroxypropylcellulose) (HPC) 114 % of control | dose: 200.0 mg/kg/injection, schedule: Q04DX002 (ip), vehicle: Klucel (hydroxypropylcellulose) (HPC) 120 % of control

O=C(Nc1ccc(Cl)cc1)SC1=NCC(=O)N1c1ccccc1
inactive: dose: 0.78 mg/kg/injection, schedule: Q01DX005 (ip), vehicle: saline with Tween-80 101 % of control | dose: 1.56 mg/kg/injection, schedule: Q01DX005 (ip), vehicle: saline with Tween-80 102 % of control | dose: 3.13 mg/kg/injection, schedule: Q01DX005 (ip), vehicle: saline with Tween-80 98 % of control and 94 % of control | dose: 6.25 mg/kg/injection, schedule: Q01DX005 (ip), vehicle: saline with Tween-80 94 % of control | [6] 89 % of control | [7] 88 % of control | [8] 92 % of control

N#CC(C(=O)CCCC(=O)Nc1ccc(Cl)cc1)c1ccccc1Cl (stereo not drawn)
inactive: [9] 113 % of control | [10] 113 % of control | [11] 106 % of control

CCCCCC(CN1CCOCC1)C(=O)/C=C/c1ccccc1 (stereo not drawn)
inactive: [1] 102 % of control | [2] 102 % of control | [3] 101 % of control

Oc1cc(-c2ccc(Cl)cc2)c(O)cc1CN1CCOCC1
inactive: [12] 92 % of control | [13] 91 % of control | [14] 92 % of control

O=[C-]/C=C\[C-]=O.[C-]#[O+].[C-]#[O+].[C-]#[O+].[C-]#[O+].[Fe+2]
inactive: dose: 12.5 mg/kg/injection, schedule: Q01DX005 (ip), vehicle: saline with Tween-80 112 % of control | [6] 110 % of control | [15] 100 % of control

Cc1cc(C)n2nc3c4ccsc4ncc3c2n1
inactive: dose: 25.0 mg/kg/injection, schedule: Q04DX002 (ip), vehicle: saline with Tween-80 105 % of control and 95 % of control | dose: 50.0 mg/kg/injection, schedule: Q04DX002 (ip), vehicle: saline with Tween-80 99 % of control and 105 % of control | [12] 116 % of control and 118 % of control and 119 % of control

CCCN=c1c2c(OC)c(OC)ccc2cc2n1CCc1cc3c(cc1-2)OCO3
inactive: dose: 0.63 mg/kg/injection, schedule: Q01DX009 (ip), vehicle: water 110 % of control | dose: 1.25 mg/kg/injection, schedule: Q01DX009 (ip), vehicle: water 99 % of control | dose: 2.5 mg/kg/injection, schedule: Q01DX009 (ip), vehicle: water 110 % of control | dose: 5.0 mg/kg/injection, schedule: Q01DX009 (ip), vehicle: water 110 % of control | dose: 10.0 mg/kg/injection, schedule: Q01DX009 (ip), vehicle: water 115 % of control

O=C(Nc1nnc(-c2cc(=O)c3cc(Cl)ccc3o2)s1)c1ccccc1
inactive: [15] 92 % of control | [7] 87 % of control and 88 % of control | [8] 99 % of control and 89 % of control

CC(=O)OCc1c(COC(C)=O)c(-c2ccccc2)n2c1CCC2
inactive: dose: 12.5 mg/kg/injection, schedule: Q01DX009 (ip), vehicle: Klucel (hydroxypropylcellulose) (HPC) 110 % of control | [16] 87 % of control

COC1/C=C/OC2(C)Oc3c(C)c(O)c4c(O)c(c(C5SCCS5)c(O)c4c3C2=O)NC(=O)/C(C)=C\C=C\C(C)C(O)C(C)C(O)C(C)C(O)C1C (stereo not drawn)
inactive: [1] 97 % of control | [2] 102 % of control | [3] 96 % of control

C(=Nc1ccccc1)Nc1ccccc1.[Cu+2]
inactive: [4] 100 % of control | [5] 104 % of control and 108 % of control

Cc1cc(=O)oc2ccc3c(=O)ccoc3c12
inactive: [9] 95 % of control | [10] 96 % of control | [11] 97 % of control

Clc1ccc(CNc2ncnc3[nH]ncc23)c(Cl)c1
inactive: dose: 100.0 mg/kg/injection, schedule: Q04DX003 (ip), vehicle: saline with Tween-80 100 % of control | dose: 200.0 mg/kg/injection, schedule: Q04DX003 (ip), vehicle: saline with Tween-80 100 % of control

O=C1NCCCN1C(=O)Nc1ccc(Cl)c(Cl)c1
inactive: [16] 101 % of control | dose: 100.0 mg/kg/injection, schedule: Q01DX009 (ip), vehicle: Klucel (hydroxypropylcellulose) (HPC) 91 % of control | dose: 200.0 mg/kg/injection, schedule: Q01DX009 (ip), vehicle: Klucel (hydroxypropylcellulose) (HPC) 95 % of control

NCCSSc1ccccc1[N+](=O)[O-]
inactive: dose: 12.5 mg/kg/injection, schedule: Q01DX005 (ip), vehicle: Klucel (hydroxypropylcellulose) (HPC) 98 % of control | dose: 25.0 mg/kg/injection, schedule: Q01DX005 (ip), vehicle: Klucel (hydroxypropylcellulose) (HPC) 94 % of control | dose: 50.0 mg/kg/injection, schedule: Q01DX005 (ip), vehicle: Klucel (hydroxypropylcellulose) (HPC) 98 % of control and 90 % of control

CS(C)(=O)=Nc1ccc(Br)cc1
inactive: [12] 98 % of control | [13] 98 % of control | [14] 103 % of control

CCCCCCCCSC(=O)n1cc(F)c(=O)[nH]c1=O
inactive: dose: 15.0 mg/kg/injection, schedule: Q01DX005 (ip), vehicle: saline with Tween-80 103 % of control | dose: 30.0 mg/kg/injection, schedule: Q01DX005 (ip), vehicle: saline with Tween-80 120 % of control | [9] 120 % of control

O=C1CSCc2nc3ccccc3n21
inactive: dose: 100.0 mg/kg/injection, schedule: Q01DX001 (ip), vehicle: saline 95 % of control | dose: 100.0 mg/kg/injection, schedule: Q01DX009 (ip), vehicle: saline 103 % of control | dose: 200.0 mg/kg/injection, schedule: Q01DX001 (ip), vehicle: saline 104 % of control | dose: 200.0 mg/kg/injection, schedule: Q01DX009 (ip), vehicle: saline 103 % of control | dose: 400.0 mg/kg/injection, schedule: Q01DX001 (ip), vehicle: saline 104 % of control

CC(=O)OC(C)C(=O)NCC(C)O (stereo not drawn)
inactive: dose: 25.0 mg/kg/injection, schedule: Q01DX005 (ip), vehicle: saline 100 % of control | dose: 50.0 mg/kg/injection, schedule: Q01DX005 (ip), vehicle: saline 103 % of control | dose: 100.0 mg/kg/injection, schedule: Q01DX005 (ip), vehicle: saline 98 % of control | dose: 200.0 mg/kg/injection, schedule: Q01DX005 (ip), vehicle: saline 100 % of control
